# From PubChem BioAssay (NCI)
# Values joined by “and” are separate entries in the source; they are usually repeats but may differ in a detail not shown here. Equal values may be shown once.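 Five concentrations, 48 hours, 96-well plates. Abbreviation: GI50, concentration required for 50% inhibition of growth. Definition used: TGI = concentration required for complete inhibition of growth.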
# Assays:
# Assay in all cases: inhibition of tumour cell growth, NCI panel, 48 h
# K-562 leukemia = test system: K-562 leukemia
# M14 melanoma = test system: M14 melanoma
# 786-0 renal = test system: 786-0 renal
# MOLT-4 leukemia = test system: MOLT-4 leukemia
# UO-31 renal = test system: UO-31 renal
# SK-OV-3 ovarian = test system: SK-OV-3 ovarian
# SNB-19 CNS = test system: SNB-19 CNS
# SNB-75 CNS = test system: SNB-75 CNS
# HCT-116 colon = test system: HCT-116 colon
# DU-145 prostate = test system: DU-145 prostate
SMILES,TGI (K-562 leukemia),TGI (M14 melanoma),TGI (786-0 renal),TGI (MOLT-4 leukemia),TGI (UO-31 renal),TGI (SK-OV-3 ovarian),TGI (SNB-19 CNS),TGI (SNB-75 CNS),TGI (HCT-116 colon),TGI (DU-145 prostate),GI50 (K-562 leukemia),GI50 (M14 melanoma),GI50 (786-0 renal),GI50 (MOLT-4 leukemia),GI50 (UO-31 renal),GI50 (SK-OV-3 ovarian),GI50 (DU-145 prostate),GI50 (HCT-116 colon),GI50 (SNB-19 CNS),GI50 (SNB-75 CNS)
Nc1nc2c(ncn2C2OC(CO)C(O)C2N)c(=O)[nH]1 (centres undefined),> 100 µM,> 100 µM,> 100 µM,> 100 µM,> 100 µM,> 100 µM,> 100 µM,> 100 µM,> 100 µM,,,,,,,,,,,
Nc1[nH]c(=O)ncc1F,> 100 µM,> 100 µM,> 100 µM,> 100 µM,> 100 µM,> 100 µM,> 100 µM,,> 100 µM,> 100 µM,,,,,,,,,,
COc1ccc2cccc(C(=O)c3ccc(C)c4c3CCC4)c2c1,> 100 µM,57.6 µM,77.7 µM,97.2 µM,82.4 µM,> 100 µM,> 100 µM,> 100 µM,> 100 µM,,,,,,,,,,,
CCOC(=O)C1N(S(=O)(=O)c2ccc(C)cc2)CCC12c1ccccc1N(C(C)=O)C2C(/C=C/C(=O)OC)=C/C(=O)OC (centres undefined),> 100 µM,> 100 µM,> 100 µM,,> 100 µM,> 100 µM,> 100 µM,> 100 µM,> 100 µM,,,,,,,,,,,
OCC(O)C(O)c1nn(-c2ccccc2)c2nc3cc(Cl)c(Cl)cc3nc12 (centres undefined),> 100 µM,> 100 µM,68.4 µM,> 100 µM,63.5 µM,> 100 µM,> 100 µM,52 µM,54.4 µM,,,,,,,,,,,
CCC1C(C)c2c([nH]c3ccccc23)C2C(=O)N(c3ccccc3)C(=O)C21 (centres undefined),44.3 µM,33.4 µM,34.5 µM,49.3 µM,,44.1 µM,,39.4 µM,,,,,,,,,,,,
Cn1c2ccccc2c(=Nc2ccccc2)c2c3ccccc3[nH]c21,15.7 µM,3.02 µM,2.63 µM,11.7 µM,> 100 µM,5.08 µM,,,2.52 µM,4.36 µM,1840 nM,1650 nM,1330 nM,320 nM,1930 nM,2160 nM,1740 nM,1260 nM,,
Cc1cc(C)cc(-n2c3nc(=O)n(C)c(=O)c-3nc3ccccc32)c1,65.3 µM,77.4 µM,> 100 µM,52.4 µM,> 100 µM,> 100 µM,50.9 µM,> 100 µM,59.8 µM,,,,,,,,,,,
O=C(O)c1c(O)c2cc(Br)ccc2oc1=O,> 100 µM,> 100 µM,> 100 µM,> 100 µM,,,> 100 µM,> 100 µM,> 100 µM,> 100 µM,,,,,,,,,,
O=C(CC(=O)N1N=C(c2ccccc2)C(N=Nc2ccc(C(=O)O)cc2)C1=O)Nc1ccc(F)cc1 (centres undefined),> 100 µM,> 100 µM,63 µM,,73.4 µM,62.6 µM,> 100 µM,,28.8 µM,,,,,,,,,,,
COC(=O)/C=C/C(=O)C1C(C(=O)OC)C2(C(=O)OC)CCC1(C(=O)OC)N2 (centres undefined),> 100 µM,> 100 µM,> 100 µM,> 100 µM,> 100 µM,> 100 µM,> 100 µM,,> 100 µM,,,,,,,,,,,
Cn1c2c([N+](=O)[O-])[se]nc2c(=O)n1-c1ccc([N+](=O)[O-])cc1,> 100 µM,2.62 µM,6.5 µM,,3.59 µM,6.1 µM,18.4 µM,7.63 µM,3.39 µM,,,,,,,,,,,
CC(=O)NS(=O)(=O)c1ccc(NC(=O)COC(=O)c2cccc3c(=O)c4ccccc4[nH]c23)cc1,> 100 µM,> 100 µM,> 100 µM,> 100 µM,> 100 µM,> 100 µM,> 100 µM,> 100 µM,> 100 µM,,,,,,,,,,,
C=CN1C(=O)OC(c2ccccc2)C1c1ccccc1 (centres undefined),> 100 µM,> 100 µM,> 100 µM,> 100 µM,> 100 µM,> 100 µM,> 100 µM,21.9 µM and > 100 µM,> 100 µM,,,> 100000 nM,> 100000 nM,> 100000 nM,> 100000 nM,> 100000 nM,,> 100000 nM,> 100 µM,
O=c1[nH]cc(CS(=O)(=O)Cc2c[nH]c(=O)[nH]c2=O)c(=O)[nH]1,> 100 µM,> 100 µM,> 100 µM,> 100 µM,> 100 µM,,> 100 µM,> 100 µM,> 100 µM,> 100 µM,,,,,,,,,,
CCCCCCCCCCCC(=O)OCC1OC(n2cc(F)c(=O)[nH]c2=O)C(NC(=O)OCc2ccccc2)C(O)C1O (centres undefined),52.3 µM,36.2 µM,50.9 µM,53.4 µM,93 µM,> 100 µM,75.5 µM,28.1 µM,30.3 µM,,,,,,,,,,,
C=C(CN1CCN(c2ccccc2OC)CC1)c1ccc(C(=O)Nc2ccccc2N)cc1,> 50 µM,> 50 µM,29.1 µM,,16.4 µM,18.1 µM,> 50 µM,,18.3 µM,39.5 µM,> 50000 nM,12100 nM,2450 nM,,7930 nM,7180 nM,3800 nM,6020 nM,12.1 µM,
COC(=O)C1=C(OC)c2cc3c(cc2C(c2cc(OC)c(OC)c(OC)c2)C1C(=O)OC)OCO3 (centres undefined),> 100 µM,> 100 µM,> 100 µM,> 100 µM,> 100 µM,> 100 µM,,> 100 µM,> 100 µM,,,,,,,,,,,
O=C(c1cc(O)ccc1O)c1ccccc1C(Cl)(Cl)Cl,> 100 µM,> 100 µM,> 100 µM,> 100 µM,> 100 µM,> 100 µM,> 100 µM,> 100 µM,> 100 µM,,,,,,,,,,,
C/C1=C\[C@H](C)C[C@H](C)OC(=O)C[C@H](c2ccc(O)cc2)NC(=O)[C@@H](Cc2c(Br)[nH]c3ccccc23)N(C)C(=O)[C@H](C)NC(=O)[C@@H](C)C1,> 49.8 µM,,0.384 µM and 0.255 µM,4.54 µM,0.351 µM and 0.238 µM,0.579 µM and 0.0749 µM,0.0568 µM,0.175 µM and 0.0335 µM,0.705 µM and 5.15 µM,,229 nM,45.6 nM,27.5 nM,76.4 nM,96.8 nM,26.7 nM,,32.9 nM,0.0232 µM,16.8 nM
